The results in this text go back to US20030219785A1, “Targeted drug delivery methods” (Vanderbilt University, priority 2002, published 2003).

“Also recorded” adds a separate entry of the source.

For assay [1], the system named is H460 tumors. As to the kind of experiment: Tumor volume assessment, H460. The format is in vivo, mouse. The settings on record: irradiation 3 Gy x2 + cisplatin 0.08 mg days 1-4. On the procedure: H460 cell line forms tumor in nude mice. […] Twenty mice bearing H460 tumors with a range of 10-13 mm of diameter on their right hind limbs were divided into four groups (five mice per group). The first group received no treatment as the control group. The second group received radiation therapy (3 Gy×2 fraction) on days 1 and 3. The third group received radiation as […] and 0.08 mg/100 μl of cisplatin in PBS by tail vein injection after irradiation on days 1, 2, 3 and 4. The forth group received radiation as […] and 0.5 mg of nanomag beads-10 μg of WGA-0.08 mg of cisplatin cocktail in 100 μl PBS by tail vein injection after irradiation on days 1, 2, 3 and 4 with 15 minutes of magnetic force field after each time injection. Tumors volumes were measured 3 times weekly using skim calipers as described previously (see […]., et al., Nat. Med. 1:786-791 (1995); Hanson, et al., Radiation Research 142:281-287 (1995)) starting on day 1 and ending on the eighth measurement, or when the tumor volume reached 5 times that of the beginning volumes. Data was calculated as the percentage of original (day 1) tumor volume and graphed as fractional tumor volume+/-standard deviation (SD) for each treatment group. […]

The test system of assay [2] is GL-261 tumors. As to the kind of experiment: Tumor volume assessment, GL-261. The class given is in vivo, mouse. The settings on record: group 3: cisplatin 0.08 mg tail vein days 1-4, no irradiation. The source says: H460 cell line forms tumor in nude mice. […] Forty mice bearing GI-261 tumors on their right hind limbs were divided eight groups (five mice per group). An equal number of large and intermediate size (11-15 mm) tumors were present in each group. The first group received no treatment as the control group. The second group received radiation therapy (3 Gy×2 fractions) on days 1 and 3. Irradiated mice were immobilized in […] chambers and the entire body was shielded with lead, except for tumor bearing hind limb. The third group received 0.08 mg/100 μl of cisplatin (Sigma) in PBS by tail vein injection on days 1, 2, 3 and 4. The forth group received 0.5 mg of nanomag beads-10 μg of WGA-0.08 mg cisplatin cocktail in 100 μl PBS by tail vein injection on days 1, 2, 3 and 4. The fifth group received irradiation of 3 Gy on days 1 and 3 and the same treatments as group 3 after irradiation on days 1, 2, 3 and 4. […] Tumors volumes were measured 3 times weekly using skim calipers as described previously (see […]., et al., Nat. Med. 1:786-791 (1995); Hanson, et al., Radiation Research 142:281-287 (1995)) starting on day 1 and ending on the eighth measurement, or when the tumor volume reached 5 times that of the beginning volumes. Data was calculated as the percentage of original (day 1) tumor volume and graphed as fractional tumor volume+/-standard deviation (SD) for each treatment group. […]

Assay [3] concerns inflamed irradiated vasculature of LLC tumor. As to the kind of experiment: WGA-FITC binding in LLC tumor vascular window model. The class given is in vivo, mouse. The settings on record: LLC window irradiated 2.5 Gy vs 0 Gy; 100 μl WGA-FITC tail vein; pictures 60 min after injection.
For assay [4], the system named is endothelial cells of tumors. Put plainly: Electron microscopy of WGA binding. The class given is in vivo.

`N.N.[Cl][Pt][Cl]` [cisplatin]: the “delay of tumor growth” value in assay [1] worked out at 11 days. Further, the tumor growth delay in assay [2] was 3 to 4 days.

Consider wheat germ agglutinin [WGA], for which, in assay [3], the “WGA-FITC binding to tumor vasculature” value was “efficiently and specifically bind; also recorded: much greater binding ability”. In assay [4], the “location of WGA binding” value is on record as “most WGA binding was located at endothelial intercellular gaps”.
